Laboratory results reported in publication PMC7115430 (European Journal of Medicinal Chemistry, 2014).
Where two headings read alike, the source gives them in different places.

Experiments:
[1] = test system: Influenza B; experiment: microbe, parasite or virus in culture; assay type: cell-based; conditions: MDCK
[2] = test system: Para-influenza-3 virus; experiment: organism not typed; assay type: cell-based; conditions: Vero, read-out: EC50 Para-influenza-3 virus
[3] = test system: Reovirus-1; experiment: organism not typed; assay type: cell-based; conditions: Vero, read-out: EC50 Reovirus-1
[4] = test system: Sindbis virus; experiment: microbe, parasite or virus in culture; assay type: cell-based; conditions: Vero, read-out: EC50 Sindbis virus
[5] = test system: Vero cells; conditions: microscopically detectable alteration of normal cell morphology
[6] = in vitro; conditions: dog
[7] = test system: Punta toro virus; experiment: microbe, parasite or virus in culture; assay type: cell-based; conditions: Vero, read-out: EC50 Punta toro virus
[8] = read-out: Antiviral EC50 Influenza B MTS
[9] = read-out: Antiviral EC50 Influenza B Visual CPE score

Row | Structure (SMILES) | EC50 [1, 8] | EC50 [1, 9] | EC50 [2] | EC50 [3] | EC50 [4] | Minimum cytotoxic concentration [5] | CC50 [6] | EC50 [7]
1 | NC(=O)c1ncn([C@@H]2O[C@H](CO)[C@@H](O)[C@H]2O)n1 [Ribavirin] | 9.6 ± 0.98 µM | 9 ± 0.56 µM | 112 µM | > 250 µM | > 250 µM | >250 µM | – | –
2 | CCC(CC)O[C@@H]1C=C(C(=O)O)C[C@H](N)[C@H]1NC(C)=O [Oseltamivir carboxylate] | 6.2 ± 0.33 µM | 4 ± 0.11 µM | – | – | – | – | > 100 µM | –
3 | Nc1ncnc2c1ncn2C[C@H](O)CO [(S)-DHPA] | – | – | > 250 µM | > 250 µM | > 250 µM | >250 µM | – | > 250 µM
4 | CC(N)C12CC3CC(CC(C3)C1)C2 (stereo not shown) [Rimantadine] | – | – | – | – | – | – | > 500 µM | –
5 | NC12CC3CC(CC(C3)C1)C2 [Amantadine] | – | – | – | – | – | – | > 500 µM | –
